Laboratory results reported in ChEMBL document CHEMBL1201861, “Genomics of Drug Sensitity in Cancer screening data, Wellcome Trust Sanger Institute”.
pIC50: −log10 of the molar value.

What was measured:
Assay in all cases: cells
JVM-2 = type: functional, cell-based; conditions: Homo sapiens;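 also: growth inhibition of JVM-2 cells determined by a cell viability assay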
Description: SANGER: Inhibition of human JVM-2 cell growth in a cell viability assay.

SK-UT-1 = type: functional, cell-based, Homo sapiens; conditions: Homo sapiens, SK-UT-1;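 also: growth inhibition of SK-UT-1 cells, measured by a cell viability assay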
Description: SANGER: Inhibition of human SK-UT-1 cell growth in a cell viability assay.

EW-11 = type: functional, cell-based, Homo sapiens; conditions: Homo sapiens, EW-11;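 also: growth inhibition of human EW-11 cells, measured with a cell viability assay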
Description: SANGER: Inhibition of human EW-11 cell growth in a cell viability assay.

CAS-1 = type: functional, cell-based, Homo sapiens; conditions: Homo sapiens, CAS-1;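 also: growth inhibition of CAS-1 cells, measured with a cell viability assay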
Description: SANGER: Inhibition of human CAS-1 cell growth in a cell viability assay.

EW-1 = type: functional, cell-based, Homo sapiens; conditions: Homo sapiens, EW-1
Description: SANGER: Inhibition of human EW-1 cell growth in a cell viability assay.

Becker = type: functional, cell-based, Homo sapiens; conditions: Homo sapiens, Becker;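 also: growth inhibition of Becker cells, read out with a cell viability assay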
Description: SANGER: Inhibition of human Becker cell growth in a cell viability assay.

HCC1187 = type: functional, cell-based, Homo sapiens; conditions: Homo sapiens, HCC1187;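 also: growth inhibition of HCC1187 cells, read out with a cell viability assay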
Description: SANGER: Inhibition of human HCC1187 cell growth in a cell viability assay.

U-266 = type: functional, cell-based; conditions: Homo sapiens
Description: SANGER: Inhibition of human U-266 cell growth in a cell viability assay.

ES1 = type: functional, cell-based, Homo sapiens; conditions: Homo sapiens, ES1;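 also: growth inhibition of ES1 cells, read out with a cell viability assay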
Description: SANGER: Inhibition of human ES1 cell growth in a cell viability assay.

NCI-H69 = type: functional, cell-based; conditions: Homo sapiens;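 also: growth inhibition of the cell line, read out with a cell viability assay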
Description: SANGER: Inhibition of human NCI-H69 cell growth in a cell viability assay.

NCI-H720 = type: functional, cell-based; conditions: Homo sapiens;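 also: growth inhibition of human NCI-H720 cells determined by a cell viability assay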
Description: SANGER: Inhibition of human NCI-H720 cell growth in a cell viability assay.

NB14 = type: functional, cell-based; conditions: Homo sapiens;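 also: growth inhibition of NB14 cells measured with a cell viability assay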
Description: SANGER: Inhibition of human NB14 cell growth in a cell viability assay.

SK-N-FI = type: functional, cell-based, Homo sapiens; conditions: Homo sapiens, SK-N-FI;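 also: cell viability assay measuring growth inhibition of human SK-N-FI cells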
Description: SANGER: Inhibition of human SK-N-FI cell growth in a cell viability assay.

EW-24 = type: functional, cell-based; conditions: Homo sapiens;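 also: human EW-24 cancer cell line, growth inhibition read out via a cell viability assay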
Description: SANGER: Inhibition of human EW-24 cell growth in a cell viability assay.

MSTO-211H = type: functional, cell-based, Homo sapiens; conditions: Homo sapiens, MSTO-211H
Description: SANGER: Inhibition of human MSTO-211H cell growth in a cell viability assay.

D-247MG = type: functional, cell-based, Homo sapiens; conditions: Homo sapiens, D-247MG
Description: SANGER: Inhibition of human D-247MG cell growth in a cell viability assay.

HOP-62 = type: functional, cell-based, Homo sapiens; conditions: Homo sapiens, HOP-62;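 also: cell growth inhibition determined with a viability assay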
Description: SANGER: Inhibition of human HOP-62 cell growth in a cell viability assay.

RPMI-8226 = type: functional, cell-based; conditions: Homo sapiens
Description: SANGER: Inhibition of human RPMI-8226 cell growth in a cell viability assay.

LB771-HNC = type: functional, cell-based, Homo sapiens; conditions: Homo sapiens, LB771-HNC;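 also: growth inhibition of LB771-HNC human cells, read out with a cell viability assay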
Description: SANGER: Inhibition of human LB771-HNC cell growth in a cell viability assay.

A101D = type: functional, cell-based, Homo sapiens; conditions: Homo sapiens, A101D;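 also: growth inhibition of the cell line, measured with a viability assay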
Description: SANGER: Inhibition of human A101D cell growth in a cell viability assay.

SF-539 = type: functional, cell-based, Homo sapiens; conditions: Homo sapiens, SF-539;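 also: Read-out is a cell viability assay, with IC50 reflecting inhibition of cell growth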
Description: SANGER: Inhibition of human SF539 cell growth in a cell viability assay.

HCC2218 = type: functional, cell-based; conditions: Homo sapiens;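 also: cell viability assay read-out, with IC50 given as the concentration that inhibits growth of the cell line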
Description: SANGER: Inhibition of human HCC2218 cell growth in a cell viability assay.

DMS-79 = type: functional, cell-based; conditions: Homo sapiens;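 also: growth inhibition measured with a cell viability assay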
Description: SANGER: Inhibition of human DMS-79 cell growth in a cell viability assay.

LS-123 = type: functional, cell-based, Homo sapiens; conditions: Homo sapiens, LS-123
Description: SANGER: Inhibition of human LS-123 cell growth in a cell viability assay.

BT-474 = type: functional, cell-based, Homo sapiens; conditions: Homo sapiens, BT-474
Description: SANGER: Inhibition of human BT-474 cell growth in a cell viability assay.

SMILES | pIC50 (JVM-2) | pIC50 (SK-UT-1) | pIC50 (EW-11) | pIC50 (CAS-1) | pIC50 (EW-1) | pIC50 (Becker) | pIC50 (HCC1187) | pIC50 (U-266) | pIC50 (ES1) | pIC50 (NCI-H69) | pIC50 (NCI-H720) | pIC50 (NB14) | pIC50 (SK-N-FI) | pIC50 (EW-24) | pIC50 (MSTO-211H) | pIC50 (D-247MG) | pIC50 (HOP-62) | pIC50 (RPMI-8226) | pIC50 (LB771-HNC) | pIC50 (A101D) | further results
C=C1C(=O)O[C@@H]2C3O[C@]3(C)CC/C=C(\C)CC[C@@H]12 (stereo not given in full) | < 5.30 | < 5.30 | < 5.30 | < 5.30 | < 5.30 | < 5.30 | < 5.30 | < 5.30 | < 5.30 | < 5.30 | < 5.30 | < 5.30 | < 5.30 | < 5.30 | < 5.30 | < 5.30 | < 5.30 | < 5.30 | < 5.30 | < 5.30 | pIC50 (SF-539): 5.61; pIC50 (HCC2218): < 5.30; pIC50 (DMS-79): < 5.30; pIC50 (LS-123): < 5.30; pIC50 (BT-474): < 5.30
CC1=C2C[C@H]3[C@@H](CC=C4C[C@@H](O)CC[C@@]43C)[C@@H]2CC[C@]12O[C@@H]1C[C@H](C)CN[C@H]1[C@H]2C [CYCLOPAMINE] | < 4.80 | < 4.80 | < 4.80 | < 4.80 | < 4.80 | < 4.80 | < 4.80 | < 4.80 | < 4.80 | < 4.80 | < 4.80 | < 4.80 | < 4.80 | < 4.80 | < 4.80 | < 4.80 | < 4.80 | < 4.80 | < 4.80 | < 4.80 | pIC50 (SF-539): < 4.80; pIC50 (HCC2218): < 4.80; pIC50 (DMS-79): < 4.80; pIC50 (LS-123): < 4.80; pIC50 (BT-474): < 4.80
CS(=O)(=O)CCNCc1ccc(-c2ccc3ncnc(Nc4ccc(OCc5cccc(F)c5)c(Cl)c4)c3c2)o1 [LAPATINIB] | < 5.70 | < 5.70 | < 5.70 | < 5.70 | < 5.70 | < 5.70 | < 5.70 | < 5.70 | < 5.70 | < 5.70 | < 5.70 | < 5.70 | < 5.70 | < 5.70 | < 5.70 | < 5.70 | < 5.70 | < 5.70 | < 5.70 | < 5.70 | pIC50 (SF-539): < 5.70; pIC50 (HCC2218): 7.27; pIC50 (DMS-79): < 5.70; pIC50 (LS-123): < 5.70; pIC50 (BT-474): 6.67
CCc1nc(N)nc(N)c1-c1ccc(Cl)cc1 [PYRIMETHAMINE] | < 4.70 | < 4.70 | < 4.70 | < 4.70 | 5.86 | < 4.70 | < 4.70 | 5.29 | 6.91 | < 4.70 | < 4.70 | < 4.70 | < 4.70 | < 4.70 | 5.12 | < 4.70 | 5.30 | < 4.70 | < 4.70 | < 4.70 | pIC50 (SF-539): 5.59; pIC50 (HCC2218): < 4.70; pIC50 (DMS-79): < 4.70; pIC50 (LS-123): < 4.70; pIC50 (BT-474): < 4.70
O=C(/C=C/c1ccccc1)NC(NC(=S)Nc1cccc2cccnc12)C(Cl)(Cl)Cl (stereo not given) [SALUBRINAL] | < 4.80 | < 4.80 | < 4.80 | < 4.80 | 5.01 | 5.24 | < 4.80 | < 4.80 | < 4.80 | < 4.80 | 5.12 | < 4.80 | < 4.80 | < 4.80 | < 4.80 | < 4.80 | < 4.80 | < 4.80 | < 4.80 | 4.86 | pIC50 (SF-539): < 4.80; pIC50 (HCC2218): < 4.80; pIC50 (DMS-79): < 4.80; pIC50 (LS-123): < 4.80; pIC50 (BT-474): < 4.80
